Toxic doses and inconclusive results are not listed. Rule as the data show it: active = T/C of 150% or more; inactive = T/C below 125%.
Test system: L1210 leukemia ip in BDF1 mice, survival T/C
Experiment: NCI In Vivo Anticancer Drug Screen. Data for tumor model L1210 Leukemia (intraperitoneal) in B6D2F1 (BDF1) mice
Settings: endpoint: mean survival time, higher = longer survival
In short: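 Survival endpoint. Drug-treated group vs vehicle group, expressed as T divided by C. Tumor passaged by transplantation.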

[1] = dose: 100.0 mg/kg/injection, schedule: Q01DX009 (ip), vehicle: saline with Tween-80
[2] = dose: 200.0 mg/kg/injection, schedule: Q01DX009 (ip), vehicle: saline with Tween-80
[3] = dose: 100.0 mg/kg/injection, schedule: Q01DX001 (ip), vehicle: carboxymethylcellulose (CMC)
[4] = dose: 200.0 mg/kg/injection, schedule: Q01DX001 (ip), vehicle: carboxymethylcellulose (CMC)
[5] = dose: 400.0 mg/kg/injection, schedule: Q01DX001 (ip), vehicle: carboxymethylcellulose (CMC)
[6] = dose: 100.0 mg/kg/injection, schedule: Q04DX003 (ip), vehicle: Klucel (hydroxypropylcellulose) (HPC)
[7] = dose: 200.0 mg/kg/injection, schedule: Q04DX003 (ip), vehicle: Klucel (hydroxypropylcellulose) (HPC)
[8] = dose: 100.0 mg/kg/injection, schedule: Q01DX009 (ip), vehicle: Klucel (hydroxypropylcellulose) (HPC)
[9] = dose: 200.0 mg/kg/injection, schedule: Q01DX009 (ip), vehicle: Klucel (hydroxypropylcellulose) (HPC)
[10] = dose: 400.0 mg/kg/injection, schedule: Q01DX009 (ip), vehicle: Klucel (hydroxypropylcellulose) (HPC)
[11] = dose: 100.0 mg/kg/injection, schedule: Q01DX001 (ip), vehicle: saline with Tween-80
[12] = dose: 100.0 mg/kg/injection, schedule: Q01DX001 (ip), vehicle: saline
[13] = dose: 200.0 mg/kg/injection, schedule: Q01DX001 (ip), vehicle: saline
[14] = dose: 400.0 mg/kg/injection, schedule: Q01DX001 (ip), vehicle: saline
[15] = dose: 100.0 mg/kg/injection, schedule: Q04DX003 (ip), vehicle: saline
[16] = dose: 200.0 mg/kg/injection, schedule: Q04DX003 (ip), vehicle: saline
[17] = dose: 100.0 mg/kg/injection, schedule: Q04DX003 (ip), vehicle: saline with Tween-80
[18] = dose: 200.0 mg/kg/injection, schedule: Q04DX003 (ip), vehicle: saline with Tween-80
[19] = dose: 400.0 mg/kg/injection, schedule: Q04DX003 (ip), vehicle: saline with Tween-80
[20] = dose: 100.0 mg/kg/injection, schedule: Q01DX001 (ip), vehicle: Klucel (hydroxypropylcellulose) (HPC)
[21] = dose: 200.0 mg/kg/injection, schedule: Q01DX001 (ip), vehicle: Klucel (hydroxypropylcellulose) (HPC)
[22] = dose: 50.0 mg/kg/injection, schedule: Q01DX009 (ip), vehicle: saline with Tween-80

Measured: T/C

CO[C@@H]([CH2][Hg][S]C#N)[C@@H]([CH2][Hg][S]C#N)OC
inactive: dose: 6.25 mg/kg/injection, schedule: Q01DX009 (ip), vehicle: saline sonified 94 % of control | dose: 12.5 mg/kg/injection, schedule: Q01DX009 (ip), vehicle: saline sonified 90 % of control | dose: 12.5 mg/kg/injection, schedule: Q04DX003 (ip), vehicle: saline sonified 97 % of control | dose: 25.0 mg/kg/injection, schedule: Q01DX009 (ip), vehicle: saline sonified 93 % of control | dose: 25.0 mg/kg/injection, schedule: Q04DX003 (ip), vehicle: saline sonified 88 % of control

Clc1ccc(N2CCNCC2)cc1
inactive: dose: 75.0 mg/kg/injection, schedule: Q01DX001 (ip), vehicle: saline 101 % of control

OCCN1CC1
inactive: dose: 1.0 mg/kg/injection, schedule: Q01DX009 (ip), vehicle: saline 92 % of control | dose: 1.56 mg/kg/injection, schedule: Q01DX009 (ip), vehicle: saline 100 % of control | dose: 2.3 mg/kg/injection, schedule: Q01DX009 (ip), vehicle: saline 96 % of control | dose: 3.12 mg/kg/injection, schedule: Q01DX009 (ip), vehicle: saline 120 % of control | dose: 6.25 mg/kg/injection, schedule: Q01DX009 (ip), vehicle: saline 94 % of control

O=C(Nc1ccc(Nc2ccccc2)cc1)Nc1cccc(F)c1
inactive: [1] 88 % of control | [2] 96 % of control

CCCCCCOc1ccc(C2=C(c3ccccc3)C(=O)C(c3ccccc3)=C2c2ccccc2)cc1
inactive: [3] 100 % of control | [4] 97 % of control | [5] 100 % of control

C=C(C)C1CCC2CC/C(=N\Nc3ccccc3C(=O)OC)C=C2C1 (stereo not given)
inactive: [6] 90 % of control | [7] 94 % of control

CS(=O)(=O)OCC1CCCCC1COS(C)(=O)=O (stereo not given)
inactive: [8] 107 % of control | [9] 104 % of control | [10] 93 % of control

CC1(C)N([O-])[N+](=O)C1(C)C
inactive: [11] 97 % of control | dose: 200.0 mg/kg/injection, schedule: Q01DX001 (ip), vehicle: saline with Tween-80 101 % of control | dose: 400.0 mg/kg/injection, schedule: Q01DX001 (ip), vehicle: saline with Tween-80 101 % of control

Cc1ccc(S(=O)(=O)N2C=Cc3ccccc3CC2)cc1
inactive: [3] 107 % of control | [4] 100 % of control | [5] 112 % of control

BrCC1OCC2(CO1)COC(CBr)OC2 (stereo not given)
inactive: [6] 96 % of control | [7] 104 % of control

Cc1ccc(S(=O)(=O)Nc2ccccc2O)cc1
inactive: [12] 102 % of control | [13] 98 % of control | [14] 98 % of control

Cc1cc(Cl)c(C)c(C(=O)O)c1Cl
inactive: dose: 50.0 mg/kg/injection, schedule: Q01DX009 (ip), vehicle: saline 107 % of control | dose: 50.0 mg/kg/injection, schedule: Q04DX003 (ip), vehicle: saline 103 % of control | [12] 91 % of control | dose: 100.0 mg/kg/injection, schedule: Q01DX009 (ip), vehicle: saline 107 % of control | [15] 105 % of control | [13] 98 % of control | dose: 200.0 mg/kg/injection, schedule: Q01DX009 (ip), vehicle: saline 105 % of control | [16] 100 % of control

Nc1nc(C=O)c(Cc2ccc3ccccc3c2)c(=O)[nH]1
inactive: [17] 100 % of control | [18] 108 % of control | [19] 110 % of control

Nc1ccc2c(c1)[nH]c(=O)c1cc(Br)ccc12
inactive: [3] 104 % of control | [4] 100 % of control | [5] 102 % of control

CCC1(c2ccccc2)C(=O)N(C)C(=O)N(CBr)C1=O (stereo not given)
inactive: [1] 109 % of control | dose: 100.0 mg/kg/injection, schedule: Q04DX002 (ip), vehicle: saline with Tween-80 92 % of control | [2] 106 % of control | dose: 200.0 mg/kg/injection, schedule: Q04DX002 (ip), vehicle: saline with Tween-80 98 % of control | dose: 400.0 mg/kg/injection, schedule: Q04DX002 (ip), vehicle: saline with Tween-80 103 % of control

c1ccc(-c2cc(-c3cc(-c4ccccc4)on3)no2)cc1
inactive: dose: 50.0 mg/kg/injection, schedule: Q04DX003 (ip), vehicle: saline with Tween-80 98 % of control | [17] 98 % of control | [18] 101 % of control

CN1CCN(C)P1(=O)N1CCCC1
inactive: [12] 107 % of control | [13] 94 % of control | [14] 94 % of control

Cc1ncc(C#N)n1C(C)c1ccccc1 (stereo not given)
inactive: [20] 103 % of control | [21] 100 % of control

O=c1[nH]nnc2c1cnn2C1OC(CO)C(O)C1O (stereo not given)
inactive: [12] 100 % of control | [13] 106 % of control | [14] 97 % of control

CCOC(=O)/C=[C](\C(=O)OCC)[Sn]([CH2]C)([CH2]C)[CH2]C
inactive: [22] 104 % of control | [1] 96 % of control | [2] 93 % of control

O=C(Nc1ccccc1O)c1ccc([N+](=O)[O-])cc1
inactive: [8] 100 % of control | [9] 91 % of control | [10] 93 % of control

C[CH2][Ge]([CH2]C)[O][Ge]([CH2]C)[CH2]C.C[CH2][Ge]([CH2]C)[O][Ge]([CH2]C)[CH2]C
inactive: dose: 5.0 mg/kg/injection, schedule: Q04DX002 (ip), vehicle: saline with Tween-80 96 % of control | dose: 10.0 mg/kg/injection, schedule: Q04DX002 (ip), vehicle: saline with Tween-80 96 % of control | dose: 20.0 mg/kg/injection, schedule: Q04DX002 (ip), vehicle: saline with Tween-80 100 % of control

N#CCCN(CCCN1CCOCC1)CN1C(=O)c2ccccc2C1=O
inactive: dose: 100.0 mg/kg/injection, schedule: Q04DX002 (ip), vehicle: saline 104 % of control | dose: 200.0 mg/kg/injection, schedule: Q04DX002 (ip), vehicle: saline 93 % of control | dose: 400.0 mg/kg/injection, schedule: Q04DX002 (ip), vehicle: saline 111 % of control

CC(C)c1c[nH]c(=O)[nH]c1=O
inactive: dose: 100.0 mg/kg/injection, schedule: Q01DX009 (ip), vehicle: other 102 % of control | [15] 91 % of control | dose: 200.0 mg/kg/injection, schedule: Q01DX009 (ip), vehicle: other 96 % of control | [16] 93 % of control | dose: 400.0 mg/kg/injection, schedule: Q01DX009 (ip), vehicle: other 102 % of control | dose: 400.0 mg/kg/injection, schedule: Q04DX003 (ip), vehicle: saline 91 % of control

CCOC(=O)/C(C)=C\C1C(C)=CCCC1(C)C (stereo not given)
inactive: [8] 104 % of control | [9] 102 % of control | [10] 96 % of control

O=C(NC(Cc1ccccc1)C(=O)CBr)OCc1ccccc1 (stereo not given)
inactive: [11] 103 % of control

CCC(Oc1ccccc1OC)C(=O)O (stereo not given)
inactive: [20] 105 % of control | [21] 103 % of control | dose: 400.0 mg/kg/injection, schedule: Q01DX001 (ip), vehicle: Klucel (hydroxypropylcellulose) (HPC) 103 % of control

COc1ccc(/C=N\NC(=O)c2ccc(Cl)c(Cl)c2)cc1OC
inactive: [22] 117 % of control | [1] 93 % of control | [2] 90 % of control

COC(=O)c1sc2ccccc2c1CC#N
inactive: [3] 103 % of control | [4] 86 % of control | [5] 103 % of control

O=[N+]([O-])c1cccc(S(=O)(=O)OCCOc2ccccc2)c1
inactive: [17] 103 % of control | [18] 101 % of control | [19] 101 % of control

Cc1ccccc1NC(=O)Nc1ccccc1F
inactive: [8] 99 % of control | [6] 96 % of control | [9] 99 % of control | [7] 103 % of control | [10] 104 % of control | dose: 400.0 mg/kg/injection, schedule: Q04DX003 (ip), vehicle: Klucel (hydroxypropylcellulose) (HPC) 110 % of control

CC1CC(C)OP(Oc2ccccc2)O1 (stereo not given)
inactive: [12] 110 % of control | [13] 96 % of control | [14] 98 % of control

C[N+]1(C)C2CCCC1CC(=O)C2
inactive: dose: 150.0 mg/kg/injection, schedule: Q01DX001 (ip), vehicle: saline 107 % of control

CC(=O)Nc1ccc(/C=N\NC(=S)Nc2ccc3cn[nH]c3c2)cc1
inactive: dose: 50.0 mg/kg/injection, schedule: Q01DX001 (ip), vehicle: carboxymethylcellulose (CMC) 100 % of control | [3] 97 % of control | [4] 103 % of control | [5] 97 % of control
